The results in this text go back to ChEMBL document CHEMBL1145436, “Design and synthesis of 6-methyl-2-oxo-1,2,3,4-tetrahydro-pyrimidine-5-carboxylic acid derivatives as PPARgamma activators” (Bioorg Med Chem Lett, 2007).

In the test the target is T1, Peroxisome proliferator-activated receptor gamma (Homo sapiens, UniProt P37231).
T1 sequence (P37231 whole entry): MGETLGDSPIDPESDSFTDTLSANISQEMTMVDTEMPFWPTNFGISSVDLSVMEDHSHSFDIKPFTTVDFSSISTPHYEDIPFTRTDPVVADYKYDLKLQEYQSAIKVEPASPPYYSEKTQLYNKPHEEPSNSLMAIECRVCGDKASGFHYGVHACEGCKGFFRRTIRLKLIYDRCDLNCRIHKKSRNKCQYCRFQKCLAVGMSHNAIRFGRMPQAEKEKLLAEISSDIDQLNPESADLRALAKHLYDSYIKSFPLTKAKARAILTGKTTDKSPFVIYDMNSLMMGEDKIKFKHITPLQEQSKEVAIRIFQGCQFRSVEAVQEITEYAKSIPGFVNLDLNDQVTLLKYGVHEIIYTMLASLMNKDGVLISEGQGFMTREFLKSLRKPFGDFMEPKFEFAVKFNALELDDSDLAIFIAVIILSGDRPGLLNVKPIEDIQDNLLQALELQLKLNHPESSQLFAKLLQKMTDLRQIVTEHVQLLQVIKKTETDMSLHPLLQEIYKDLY
Description: Displacement of [3H]rosiglitazone from PPAR gamma
By IC50 is commonly meant the midpoint of a concentration-inhibition curve. The low end stands for greater potency, the high end for weaker potency. `CC1=C(C(=O)O)C(c2ccc(OCCn3c4ccccc4c4ccccc43)cc2)NC(=O)N1` (centres undefined) gave an IC50 of 900 nM.

`COc1cc(C2NC(=O)NC(C)=C2C(=O)O)ccc1OCCn1c2ccccc2c2ccccc21` (centres undefined): half-maximal inhibition (IC50) was put at 820 nM. Molecule `CC1=C(C(=O)O)C(c2ccc(OCCOc3cccc4[nH]c5ccccc5c34)cc2)NC(=O)N1` (centres undefined) registered an IC50 of 1000 nM.

`CC1=C(C(=O)O)C(c2ccc(OCCOc3cccc4ccc(C)nc34)cc2)NC(=O)N1` (centres undefined) displayed an IC50 of 600 nM. `COc1cc(C2NC(=O)NC(C)=C2C(=O)O)ccc1OCCOc1cccc2ccc(C)nc12` (centres undefined) came in with an IC50 of 800 nM. The molecule `CC1=C(C(=O)O)C(c2ccc(OCCn3ccc4cccnc43)cc2)NC(=O)N1` (centres undefined) had an IC50 of 1000 nM.

`COc1cc(C2NC(=O)NC(C)=C2C(=O)O)ccc1OCCn1ccc2cccnc21` (centres undefined) registered an IC50 of 720 nM.

With `CC1=C(C(=O)O)C(c2ccc(OCCOc3cc(C)nc4ccccc34)cc2)NC(=O)N1` (centres undefined), the 50% inhibitory concentration (IC50) is 760 nM. Regarding `COc1cc(C2NC(=O)NC(C)=C2C(=O)O)ccc1OCCOc1cc(C)nc2ccccc12` (centres undefined), the IC50 stood at 940 nM. In turn, `COc1cccc2c1c1ccccc1n2CCOc1ccc(C2NC(=O)NC(C)=C2C(=O)O)cc1` (centres undefined) came in with an IC50 of 800 nM. Consider `CC1=C(C(=O)O)C(c2ccc(OCCCn3ccc4cccnc43)cc2)NC(=O)N1` (centres undefined), for which half-maximal inhibition (IC50) was put at 750 nM.

In the case of `CC1=C(C(=O)O)C(c2ccc(OCCCOc3cc(C)nc4ccccc34)cc2)NC(=O)N1` (centres undefined), the IC50 turned out to be 750 nM. Regarding `CC1=C(C(=O)O)C(c2ccc(OCCOc3ccc(C(=O)c4ccc(Cl)cc4)cc3)cc2)NC(=O)N1` (centres undefined), the IC50 came to 930 nM. `CC1=C(C(=O)O)C(c2ccc(OCCCOc3cccc4[nH]c5ccccc5c34)cc2)NC(=O)N1` (centres undefined) showed an IC50 of 900 nM.
